Measurements reported in patent US20210290816A1, “LIQUID EMBOLICS” (MicroVention, Inc., priority 2020, published 2021).
Where a name gives a salt, the structure may show the parent alone.

Experiments:
[1] = In vitro elution of carmustine from PHIL® solution; assay type: physicochemical; settings: 50 mg in 1 mL 25 wt % PHIL®, 99 mL distilled water, room temperature
Protocol: (§1) Fifty mg of carmustine are dissolved in 1 mL of 25 wt % PHIL® solution, which includes triiodophenol-(lactide-co-glycolide) acrylate and hydroxyethyl methacrylate in dimethyl sulfoxide. The 1 mL of 25 wt % PHIL®/carmustine solution is precipitated in 99 mL of a dissolution medium, including distilled water at room temperature. At 2, 5, 9, 14, 20, 27, 35, 44, 54, 65 and 90 minutes, 1 mL of the supernatant is pipetted out and placed in a HPLC vial.
The concentration of carmustine in each sample is determined using an Agilent 1100 HPLC system. The chromatographic analysis is performed with a Primesep 100 column (3.2 mm×50 mm, 3 μm). The mobile phase includes 10% methanol and 90% 10 mM potassium phosphate buffer solution pH 3 with 5% acetonitrile and 7.2 mM triethylamine delivered at 1 mL/min. The injection volume is 3 μL and the wavelength of the ultraviolet detector is 230 nm. The calibration curve is prepared from 10 to 1000 ppm of carmustine. The amount of carmustine released and relative percentage are calculated from the concentration data.

[2] = 50 mg in 1 mL 25 wt % PHIL®, 99 mL distilled water, room temperature
Protocol: as §1, with “cyclophosphamide” for “carmustine”, “PHIL®/cyclophosphamide” for “PHIL®/carmustine”
The concentration of cyclophosphamide in each sample is determined using an Agilent 1100 HPLC system. The chromatographic analysis is performed with a Primesep 100 column (3.2 mm×50 mm, 3 μm). The mobile phase includes 5% acetonitrile and 95% HPLC water with 5% acetonitrile delivered at 1 mL/min. The injection volume is 25 μL and the wavelength of the ultraviolet detector is 197 nm. The calibration curve is prepared from 10 to 1000 ppm of cyclophosphamide. The amount of cyclophosphamide released and relative percentage are calculated from the concentration data.

[3] = In vitro elution of doxorubicin from PHIL® solution; assay type: physicochemical; settings: 50 mg doxorubicin hydrochloride in 1 mL 25 wt % PHIL®, 99 mL 10 mM potassium phosphate buffer pH 4.0, room temperature
Protocol: as §1, with “doxorubicin hydrochloride” for “carmustine”, “PHIL®/doxorubicin” for “PHIL®/carmustine”, “10 mM potassium phosphate buffer solution pH 4.0” for “distilled water”
The concentration of doxorubicin in each sample is determined using an Agilent 1100 HPLC system. The chromatographic analysis is performed with an Agilent Extended-C18 column (4.6 mm×50 mm, 3.5 μm). The mobile phase includes 18% acetonitrile and 82% 10 mM potassium phosphate buffer solution pH 3 with 5% acetonitrile and 7.2 mM triethylamine delivered at 1 mL/min. The injection volume is 3 μL and the wavelength of the ultraviolet detector is 234 nm. The calibration curve is prepared from 10 to 1000 ppm of doxorubicin. The amount of doxorubicin released and relative percentage are calculated from the concentration data.

[4] = In vitro elution of gemcitabine from PHIL® solution; assay type: physicochemical; settings: 50 mg in 1 mL 25 wt % PHIL®, 99 mL PBS, room temperature
Protocol: The chromatographic analysis is performed with an Agilent Extended-C18 column (4.6 mm×50 mm, 3.5 μm). […] The injection volume is 3 μL and the wavelength of the ultraviolet detector is 275 nm.

[5] = In vitro elution of irinotecan from PHIL® solution; assay type: physicochemical; settings: 50 mg irinotecan hydrochloride in 1 mL 25 wt % PHIL®, 99 mL 10 mM potassium phosphate buffer pH 4.0, room temperature
Protocol: (§2) The chromatographic analysis is performed with an Agilent Extended-C18 column (4.6 mm×50 mm, 3.5 μm). The mobile phase includes of 18% acetonitrile and 82% 10 mM potassium phosphate buffer solution pH 3 with 5% acetonitrile and 7.2 mM triethylamine delivered at 1 mL/min. The injection volume is 2 μL and the wavelength of the ultraviolet detector is 223 nm.

Canine Liver = test: In vivo evaluation of PHIL LV liquid embolic with irinotecan in canine liver
Protocol: A canine is anesthetized and a 6 Fr sheath is inserted into the femoral artery via a cutdown. A 6 Fr Glidecath is advanced retrograde into the celiac trunk and further into the hepatic artery. Following angiography, a Scepter balloon (4 mm×10 mm) is advanced through the Glidecath and into a branch of the hepatic artery. […] Blood is collected at 5, 15, 30, 60, and 120 minutes post-embolization for irinotecan quantification.

[6] = In vitro elution of oxaliplatin from PHIL® solution (ICP-MS platinum); assay type: physicochemical; settings: 50 mg in 1 mL 25 wt % PHIL®, 50 mL PBS replaced at each time point, room temperature
Protocol: The remaining supernatant is poured out and the precipitates are mixed with a fresh 50 mL of the dissolution medium at room temperature.
Samples are prepared for ICP-MS analysis to measure the platinum concentration in the supernatant by mixing a sample portion (1 mL) with 4 mL of 2% nitric acid (5-fold dilution) or a sample portion (2.5 mL) with 0.05 mL of 2% nitric acid (undiluted). The calibration curve is prepared from 0.5 to 100 ppm of platinum.

[7] = In vitro elution of paclitaxel from PHIL® solution; assay type: physicochemical; settings: 50 mg in 1 mL 25 wt % PHIL®, 199 mL 45:55 acetonitrile/10 mM potassium phosphate buffer pH 4.5, room temperature
Protocol: Fifty mg of paclitaxel are dissolved in 1 mL of 25 wt % PHIL® solution, which includes triiodophenol-(lactide-co-glycolide) acrylate and hydroxyethyl methacrylate in dimethyl sulfoxide. The 1 mL of 25 wt % PHIL®/Paclitaxel solution is precipitated in 199 mL of a dissolution medium, consisting of 45:55 acetonitrile/10 mM potassium phosphate buffer solution pH 4.5 at room temperature. At 2, 5, 9, 14, 20, 27, 35, 44, 54, 65 and 90 minutes, 1 mL of the supernatant is pipetted out and placed in a HPLC vial. The concentration of paclitaxel in each sample is determined using an Agilent 1100 HPLC system. The chromatographic analysis is performed with an Agilent Extended-C18 column (4.6 mm×50 mm, 3.5 μm). The mobile phase includes 50% acetonitrile and 50% 5% acetonitrile in water delivered at 1 mL/min. The injection volume is 10 μL and the wavelength of the ultraviolet detector was 227 nm. The calibration curve is prepared from 5 to 500 ppm of paclitaxel. The amount of paclitaxel released and relative percentage are calculated from the concentration data.

[8] = In vitro elution of sorafenib from PHIL® solution; assay type: physicochemical; settings: 50 mg in 1 mL 25 wt % PHIL®, 999 mL 70:30 acetonitrile/10 mM potassium phosphate buffer pH 4.3, room temperature
Protocol: The 1 mL of 25 wt % PHIL®/sorafenib solution is precipitated in 999 mL of a dissolution medium, including 70:30 acetonitrile/10 mM potassium phosphate buffer solution pH 4.3 at room temperature.
as §2, with “includes 50%” for “includes of 18%”, “and 50%” for “and 82%”, “is 3” for “is 2”, “is 263” for “is 223”, “nm. The calibration curve is prepared from 1 to 100 ppm of sorafenib.” for “nm.”

[9] = In vitro elution of sunitinib from PHIL® solution; assay type: physicochemical; settings: 50 mg sunitinib malate in 1 mL 25 wt % PHIL®, 999 mL phosphate buffered saline
Protocol: The 1 mL of 25 wt % PHIL®/sunitinib solution is precipitated in 999 mL of a dissolution medium, including phosphate buffered saline.
as §2, with “includes 22%” for “includes of 18%”, “and 78%” for “and 82%”, “is 3” for “is 2”, “is 429” for “is 223”, “nm. The calibration curve is prepared from 1 to 100 ppm of sunitinib.” for “nm.”

SMILES: O=NN(CCCl)C(=O)NCCCl [carmustine]
- total amount of carmustine eluted ([1]; first 90 minutes): 26 mg per 1 mL of PHIL®
- sharp increase of carmustine eluted ([1]; within the first 35 minutes): 21 mg

SMILES: O=P1(N(CCCl)CCCl)NCCCO1 (centres unmarked) [cyclophosphamide]
- total amount of cyclophosphamide eluted ([2]; first 90 minutes): 38 mg per 1 mL of PHIL®
- sharp increase of cyclophosphamide eluted ([2]; within the first 35 minutes): 35 mg

SMILES: COc1cccc2c1C(=O)c1c(O)c3c(c(O)c1C2=O)C[C@@](O)(C(=O)CO)C[C@@H]3O[C@H]1C[C@H](N)[C@H](O)[C@H](C)O1 [doxorubicin, doxorubicin hydrochloride]
- total amount of doxorubicin eluted ([3]; first 90 minutes): 38 mg per 1 mL of PHIL®
- sharp increase of doxorubicin eluted ([3]; within the first 14 minutes): 29 mg

SMILES: Nc1ccn([C@@H]2O[C@H](CO)[C@@H](O)C2(F)F)c(=O)n1 [gemcitabine]
- total amount of gemcitabine eluted ([4]; first 90 minutes): 43 mg per 1 mL of PHIL®
- sharp increase of gemcitabine eluted ([4]; within the first 9 minutes): 34 mg

SMILES: CCc1c2c(nc3ccc(OC(=O)N4CCC(N5CCCCC5)CC4)cc13)-c1cc3c(c(=O)n1C2)COC(=O)[C@]3(O)CC [irinotecan, irinotecan hydrochloride]
- total amount of irinotecan eluted ([5]; first 90 minutes): 31 mg per 1 mL of PHIL®
- sharp increase of irinotecan eluted ([5]; within the first 9 minutes): 24 mg
- irinotecan in the blood, rapid rise to (Canine Liver; 1.5 mL PHIL LV loaded with 75 mg irinotecan into hepatic artery branch, blood 5-120 minutes post-embolization): about 300 ppb
- tapering of irinotecan in the blood back to baseline (Canine Liver; 1.5 mL PHIL LV loaded with 75 mg irinotecan, blood collected to 120 minutes): beyond the timescale of the experiment

SMILES: O=C1[O][Pt]2([NH][C@@H]3CCCC[C@H]3[NH]2)[O]C1=O [oxaliplatin]
- total amount of oxaliplatin eluted ([6]; first 80 minutes): 41 mg per 1 mL of PHIL®
- sharp increase of oxaliplatin eluted ([6]; within the first 15 minutes): 37 mg

SMILES: CC(=O)O[C@H]1C(=O)[C@@]2(C)[C@H]([C@H](OC(=O)c3ccccc3)[C@]3(O)C[C@H](OC(=O)[C@H](O)[C@@H](NC(=O)c4ccccc4)c4ccccc4)C(C)=C1C3(C)C)[C@]1(OC(C)=O)CO[C@@H]1C[C@@H]2O [paclitaxel]
- total amount of paclitaxel eluted ([7]; first 90 minutes): 38 mg per 1 mL of PHIL®
- sharp increase of paclitaxel eluted ([7]; within the first 9 minutes): 30 mg

SMILES: CNC(=O)c1cc(Oc2ccc(NC(=O)Nc3ccc(Cl)c(C(F)(F)F)c3)cc2)ccn1 [sorafenib]
- total amount of sorafenib eluted ([8]; first 90 minutes): 42 mg per 1 mL of PHIL®
- sharp increase of sorafenib eluted ([8]; within the first 2 minutes): 38 mg

SMILES: CCN(CC)CCNC(=O)c1c(C)[nH]c(/C=C2\C(=O)Nc3ccc(F)cc32)c1C [sunitinib, sunitinib malate]
- total amount of sunitinib eluted ([9]; first 65 minutes): 16 mg per 1 mL of PHIL®
- sharp increase of sunitinib eluted ([9]; within the first 2 minutes): 11 mg
